The values below are quoted from earlier work in US8680084B2, “Oral contraceptives to prevent pregnancy and diminish premenstrual symptomatology” (Teva Women's Health, Inc., priority 2001, dated 2014).

The conditions of data set [1]: for amount roughly equivalent to 1 mg of levonorgestrel: progestin potency relative to levonorgestrel; for amount roughly equivalent to 30 μg of ethinyl estradiol: estrogen potency relative to ethinyl estradiol.
The test system of data set [2] is PMDD. The following applies: daily dose of either 20 mg or 60 mg; randomized, placebo-controlled trials.

As for `C#C[C@]1(O)CC[C@H]2[C@@H]3CCC4=CC(=O)CC[C@@H]4[C@H]3C(=C)C[C@@]21CC` [3-ketodesogestrel], in data set [1], the “amount roughly equivalent to 1 mg of levonorgestrel” value (“amount roughly equivalent to 1 mg” for short) is given as about 1 mg. Take `C[C@]12CC[C@@H]3c4ccc(O)cc4CC[C@H]3[C@@H]1CC[C@@H]2O` [17β-estradiol]: the amount roughly equivalent to 30 μg of ethinyl estradiol in data set [1] was about 2 mg.

Regarding `CNCCC(Oc1ccc(C(F)(F)F)cc1)c1ccccc1` (stereo not shown) [Fluoxetine, fluoxetine], the “reducing symptoms of PMDD versus placebo” value in data set [2] was “superior to placebo”. Regarding `C#C[C@]1(O)CC[C@H]2[C@@H]3CCC4=CCCC[C@@H]4[C@H]3C(=C)C[C@@]21CC` [desogestrel], the “amount roughly equivalent to 1 mg” value in data set [1] is given as about 1 mg. Turning to `C#C[C@]1(O)C=C[C@H]2[C@@H]3CCC4=CC(=O)CC[C@@H]4[C@H]3CC[C@@]21CC` [gestodene], in data set [1], the “amount roughly equivalent to 1 mg” value is listed as “about 0.7 mg”. On to `C#C[C@]1(O)CC[C@H]2[C@@H]3CCc4cc(OC)ccc4[C@H]3CC[C@@]21C` [mestranol], for which, in data set [1], the “amount roughly equivalent to 30 μg of ethinyl estradiol” value is about 0.06 mg. Take `C#C[C@]1(OC(C)=O)CC[C@H]2[C@@H]3CCC4=CC(=O)CC[C@@H]4[C@H]3CC[C@@]21C` [norethindrone acetate]: the “amount roughly equivalent to 1 mg” value in data set [1] was “about 3.5 mg”.
